Experiments:
M14 cells [1] = experiment: Western blot of PARP1 cleavage, M14; format: cell-based, Human; conditions: 72 h
Description: (§1) Western blot analyses of total protein extracts were performed as previously described. Immunodetection was performed using antibodies directed to poly (ADP-ribose) polymerase (PARP; BD Biosciences San Diego, CA, USA), LC3B (Cell Signaling Technology, Danvers, MA), HSP72/73 (Calbiochem, EMD Biosciences, La Jolla, CA), Bcl-2 (SC-509, Santa Cruz Biotechnology Inc, Dallas, TX, USA), Bcl-xL (SC-271121, Santa Cruz Biotechnology Inc), Mcl-1 (SC-12756, Santa Cruz Biotechnology Inc) α-tubulin (Santa Cruz Biotechnology Inc) actin (Sigma-Aldrich, St. Louis, Missouri, USA). Anti-rabbit or anti-mouse immunoglobulin G-horseradish peroxidase-conjugated antibodies (Amersham Biosciences, Freiburg, Germany) were used as secondary antibody. Images were acquired by Image Lab Software (Bio-Rad, Hercules, CA, USA), using a ChemiDoc System instrument (Bio-Rad). The densitometric evaluation was performed using Image J software and normalized with relative controls.
Figure 5 Analysis of apoptosis induction by IS20 and IS21 in leukemia, melanoma and NSCLC cells. […] (A-F) Reported images are representative of two independent experiments with similar results. HSP72/73 or α-Tubulin are shown as loading and transferring control. (G) Flow cytometric quantification of cells in the subG1 peak of cell cycle distribution by propidium iodide staining in HL60 cell line treated with IS20 or IS21 (20 μM for 24 h) and in M14, H1299 and MDA-MB-231 cell lines treated with IS20 or IS21 (20 μM for 72 h). Data are reported as mean ± SD of three independent experiments. p-values were calculated between control (Ctrl) and treated cells, * p < 0.05. (H) Flow cytometric quantification of cells in the subG1 peak by propidium iodide staining in M14 and H1299 cell lines treated with IS20 or IS21 (20 μM, 72 h) in presence or absence of the pan caspase inhibitor z-VAD (50 μM). p-values were calculated between treated control (Ctrl) cells, # p < 0.01, ## p < 0.001 or between cells treated with IS20 or IS21 alone or in combination with z-VAD, * p < 0.05, ** p < 0.005. (G-H) Data are reported as mean of two (H) or three (G) experiments ± SD.

Mcl-1 = Mcl-1 (Homo sapiens, UniProt Q07820); experiment: SPR binding to immobilized Mcl-1; conditions: analyte 0.3-30 µM
Sequence of Mcl-1 (Q07820 whole entry): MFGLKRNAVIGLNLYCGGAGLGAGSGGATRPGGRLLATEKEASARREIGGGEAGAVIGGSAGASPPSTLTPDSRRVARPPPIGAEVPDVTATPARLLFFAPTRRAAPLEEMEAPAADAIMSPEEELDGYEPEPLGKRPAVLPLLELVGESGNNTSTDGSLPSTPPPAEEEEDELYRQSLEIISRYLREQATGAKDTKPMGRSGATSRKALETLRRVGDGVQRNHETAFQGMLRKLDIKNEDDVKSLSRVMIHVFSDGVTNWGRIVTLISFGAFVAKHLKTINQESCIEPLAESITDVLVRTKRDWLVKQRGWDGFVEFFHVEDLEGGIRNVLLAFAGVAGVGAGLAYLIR
Description: (§2) FastStep experiments were performed with a SensiQ Pioneer apparatus. Bcl-2 immobilization on COOH5 sensorchips was carried out essentially as previously reported, [40]. All the experiments were carried out at 25 °C in degassed HEPES 20 mM, pH 7.4, NaCl 150 mM, 0.005% surfactant P20 + 2% DMSO (HBSP2%D). […] Each sensorgram is the average of at least three experiments. The decrease in Response Units (RU) after 165 s indicates analyte dissociation from the immobilized Bcl-2 upon HSBP2%D buffer injection. Control SPR experiments were carried out measuring sensorgrams on Bcl-xL and Mcl-1 (ligands) immobilized on COOH5 sensorchips as previously reported at 25 °C in degassed HBSP2%D buffer. […] Each sensorgram is the average of at least three experiments. The decrease in RU after 180 s indicates analyte dissociation from the immobilized ligands upon HSBP2%D buffer injection. Kinetic evaluation of the sensorgrams was carried out using the Qdat 4.0 program; best fittings were obtained with 2 sites and indicated in red (reported KD values refer to dissociation constants of the highest affinity site).
Figure 3 SPR analysis of the interaction between IS20 or IS21 and Bcl-xL and Mcl-1 proteins. SPR experiments were carried out measuring sensorgrams on Bcl-xL and Mcl-1 (ligands) immobilized on COOH5 sensorchips at 25 °C in degassed HBSP2%D buffer. IS20 and IS21 (analytes) were injected at a flow rate = 30 μL/min, at the following concentrations: 0.3 μM (only for Mcl-1 experiments); 1 μM; 3 μM; 10 μM; 30 μM. Each sensorgram is the average of at least three experiments. The decrease in RU (Response Units) after 180 s indicates analyte dissociation from the immobilized ligands upon HSBP2%D buffer injection. The fitted KD values for Bcl-xL are the following. IS20: 0.42 ± 0.09 μM and IS21: 0.51 ± 0.17 μM. The fitted KD values for Mcl-1are the following. IS20: 3.9 ± 0.30 μM and IS21: 1.16 ± 0.14 μM;

M14 cells [2] = experiment: Western blot of LC3B-I/LC3B-II (autophagy), M14; format: cell-based, Human; conditions: 72 h
Description: as §1
Figure 6 Analysis of autophagosome accumulation in M14 and H1299 cells after treatment with IS20 or IS21. Western blot analysis of LC3B-I and LC3B-II protein levels in (A) M14, and (B) H1299 cell lines untreated (Ctrl) or treated with IS20 or IS21 for 72 h at the indicated concentrations. (C) Western blot analysis of LC3B-I and LC3B-II levels in HL60 and U937 cell lines untreated (Ctrl) or treated with IS20 or IS21 (20 μM for 24 h). (A-C) Reported images are representative of two independent experiments with similar results. HSP72/73, Actin or α-Tubulin are shown as loading and transferring control. […] Ratio of LC3B-II on LC3B-I levels, after normalization on HSP72/73, Actin or α-Tubulin, is quantified by densitometric analysis. (D) (Upper panels) Representative images and (lower panels) relative quantification of fluorescence microscopic analysis of LC3B puncta positive cells in M14 EGFP-LC3B and H1299 EGFP-LC3B transfected cells, treated with IS20 or IS21 (20 µM for 72h). […] Cells with more than 10 puncta were considered autophagy-positive. p-values were calculated between untreated (Ctrl) and treated cells, * p < 0.05.

Bcl-2 = Bcl-2 (Homo sapiens, UniProt P10415); experiment: SPR binding to immobilized Bcl-2; conditions: SPR, 25 °C, 2-site fit, highest affinity site
Sequence of Bcl-2 (P10415 whole entry): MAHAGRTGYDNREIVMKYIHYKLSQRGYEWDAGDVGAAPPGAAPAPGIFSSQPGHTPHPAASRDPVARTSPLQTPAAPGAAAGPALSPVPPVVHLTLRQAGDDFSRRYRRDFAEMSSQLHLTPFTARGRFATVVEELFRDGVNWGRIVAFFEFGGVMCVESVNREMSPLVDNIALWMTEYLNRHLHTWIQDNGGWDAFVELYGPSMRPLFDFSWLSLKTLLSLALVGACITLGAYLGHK
Description: as §2
Figure 2 SPR analysis of the interaction between putative inhibitors of Bcl-2 anti-apoptotic members and Bcl-2 protein. Bcl-2 was immobilized via amine coupling onto a COOH5 sensorchip; Bcl-2 family inhibitors (analytes) were injected at a flow rate = 100 μL/min, at the following concentrations. 0-30 s: 0.625 μM; 31-60 s: 1.25 μM; 61-90 s: 2.5 μM; 91-120 s: 5 μM; 121-150 s: 10 μM; 151-165 s: 20 μM. The increase in Response Units (RU) relative to baseline indicates complex formation between the immobilized Bcl-2 ligand and the analytes upon Bcl-2 family inhibitors injection. The decrease in RU after 165 s indicates analyte dissociation from the immobilized Bcl-2 upon buffer injection. Full fittings with 2 sites are indicated in red. The fitted KD values are the following.

Kd (Bcl-2) [nM]	SMILES	PARP1 cleavage, M14 (M14 cells [1])	other results
	CC1(C)CCC(CN2CCN(c3ccc(C(=O)NS(=O)(=O)c4ccc(NCC5CCOCC5)c([N+](=O)[O-])c4)c(Oc4cnc5[nH]ccc5c4)c3)CC2)=C(c2ccc(Cl)cc2)C1 [ABT-199, venetoclax, reference compound]	PARP1 cleavage	interaction with Mcl-1 (SPR) (Mcl-1): negligible interaction
	CC1(C)CCC(c2ccc(Cl)cc2)=C(CN2CCN(c3ccc(C(=O)NS(=O)(=O)c4ccc(N[C@H](CCN5CCOCC5)CSc5ccccc5)c(S(=O)(=O)C(F)(F)F)c4)cc3)CC2)C1 [ABT-263, navitoclax, reference compound]	PARP1 cleavage	ratio of LC3B-II on LC3B-I / LC3B-II protein level, M14 (M14 cells [2]): increased
480 ± 110	CC(C)(C)c1ccc(C=NN2CCN(Cc3ccccc3Cl)CC2)cc1 [IS1]		
4600 ± 900	O=C(CN1CCN(Cc2ccccc2Cl)CC1)N/N=C/c1ccccc1C(F)(F)F [IS27]		
3400 ± 1100	CC(C)(C)c1ccc(-c2nnc(SCc3ccccc3F)n2N)cc1 [IS29]		
770 ± 140	COc1ccc(-c2cc(C(F)F)nc(N3CCN(Cc4ccccc4C)CC3)n2)cc1OC [ISP]		
